Reference: patent US11338007B2, “Combination formulation of three antiviral compounds” (priority 2016, dated 2022)

Tests used:
[1] = Solid-state compatibility of sofosbuvir/velpatasvir SSD/voxilaprevir SSD granules (Table 7); type: physicochemical; conditions: for LS / Total Imp./Deg. Products: granules Lot F
Procedure: Sofosbuvir, velpatasvir SSD, and voxilaprevir SSD are chemically and physically compatible in the solid-state. The solid-state compatibility of sofosbuvir, velpatasvir SSD, and voxilaprevir SSD was evaluated by preparing a powder blend composed of 49.75% w/w sofosbuvir, 24.88% w/w of velpatasvir SSD, and 24.88% w/w of voxilaprevir SSD, and 0.25% w/w magnesium stearate (added as a lubricant). The powder blend was dry granulated using a roller compactor and then milled. The resulting granules (Lot F) contained 400 mg of sofosbuvir, 100 mg velpatasvir (as 200 mg velpatasvir SSD), and 100 mg voxilaprevir (as 200 mg voxilaprevir SSD) equivalent to the relative compositions in the sofosbuvir/velpatasvir/voxilaprevir tablet: 400/100/100 mg.
The chemical and physical stability of sofosbuvir/velpatasvir SSD/voxilaprevir SSD granules, packaged in glass vials (protected from light), was evaluated for 6 months at 25° C./60% RH and 40° C./75% RH under open and closed conditions. As summarized in Table 7, sofosbuvir, velpatasvir, and voxilaprevir were chemically stable with no increase in total impurities/degradation products of sofosbuvir (remaining at 0.0%), velpatasvir (remaining between 0.4 and 0.5%), and voxilaprevir (remaining between 1.1 and 1.4%) after a 6 month storage period. No upward trend in the content of degradation products was observed over the time period studied.

HCV RNA = assay: Emax PK/PD modeling of sofosbuvir dose (HCV RNA change from baseline); type: in vivo, human; conditions: mean major metabolite AUCtau for 400 mg dose
Procedure: The sofosbuvir dose selected for the tablet formulation is 400 mg once daily. Support for the 400 mg sofosbuvir dose can be derived from Emax PK/PD modeling with early virological and human exposure data which also supports the selection of a 400 mg sofosbuvir dose over others tested.
The mean sofosbuvir major metabolite AUCtau for the 400 mg sofosbuvir dose is associated with approximately 77% of the maximal HCV RNA change from baseline achievable as determined by this model, a value which is on the cusp of the plateau of the exposure-response sigmoidal curve. In a sigmoidal Emax model, there is a relatively linear exposure-response relationship in the 20 to 80% maximal effect range. Therefore, given that sofosbuvir exposure with 200 mg tablets appears dose-proportional with single doses up to 1200 mg, doses below 400 mg are expected to yield considerable reductions in the magnitude of HCV RNA change from baseline.

[2] = Tablet dissolution, 50 mM sodium acetate buffer pH 5.0 with 2.0% w/v Polysorbate 80, USP Type II, 75 rpm; type: physicochemical
Procedure: FIGS. 10-12 depict additional dissolution profiles for the sofosbuvir/velpatasvir SSD/voxilaprevir SSD tablets having the formulation described in Table 13 and which were used in phase 1, 2, and 3 clinical studies, where the dissolution testing was conducted at pH 5.0 acetate buffer containing 2.0% w/v polysorbate 80. Four batches of the sofosbuvir/velpatasvir SSD/voxilaprevir SSD tablets were tested, with Batch A manufactured at 100 kg and Batches B, C and D manufactured at 145 kg. All other aspects of the formulation and manufacturing process were otherwise equivalent. […] Moreover, for Batch A, the amount dissolved at 30 min remained between 98 and 100% for sofosbuvir, between 90 and 92% for velpatasvir SSD, and between 89 and 93% for voxilaprevir SSD. […] For Batch D, the amount dissolved at 30 min remained at 100% for sofosbuvir, between 90 and 91% for velpatasvir SSD, and between 89 and 91% for voxilaprevir SSD. Release of velpatasvir SSD and voxilaprevir SSD from the sofosbuvir/velpatasvir SSD/voxilaprevir SSD tablets associated with all four Batches was complete after 60 minutes.

[3] = Tablet dissolution, 1.0% w/v CTAB in 190 mM acetate buffer pH 4.0, USP Type II, 75 rpm; type: physicochemical
[4] = BCS classification and pH dependence of solubility; type: physicochemical
[5] = 25° C./60% RH (Closed), 3 months
[6] = 25° C./60% RH (Closed), 6 months
[7] = 40° C./75% RH (Closed), 1 month
[8] = 40° C./75% RH (Closed), 3 months
[9] = 40° C./75% RH (Closed), 6 months

For `CC(C)OC(=O)C(C)N[P@](=O)(OC[C@H]1O[C@@H](n2ccc(=O)[nH]c2=O)[C@](C)(F)[C@@H]1O)Oc1ccccc1` (stereo in doubt) [sofosbuvir, (S)-isopropyl 2-(((S)-(((2R,3R,4R,5R)-5-(2,4-dioxo-3,4-dihydropyrimidin-1(2H)-yl)-4-fluoro-3-hydroxy-4-methyltetrahydrofuran-2-yl)methoxy)(phenoxy)phosphoryl)amino)propanoate], the LS [1, 5] was 101.1%, the “Total Imp./Deg. Products” value [1, 5] was 0.0% and the LS [1, 6] was 99.1%. The “Total Imp./Deg. Products” value [1, 6] was 0.0%, the LS [1, 7] was 99.5% and the “Total Imp./Deg. Products” value [1, 7] was 0.0%. The LS [1, 8] was 99.4%, the “Total Imp./Deg. Products” value [1, 8] was 0.0% and the LS [1, 9] was 97.2%. For the same compound, the “Total Imp./Deg. Products” value [1, 9] was 0.0%, the LS ([1]; 40° C./75% RH (Open), 1 month) was 101.3% and the “Total Imp./Deg. Products” value ([1]; 40° C./75% RH (Open), 1 month) was 0.0%. For the same compound, the LS ([1]; 40° C./75% RH (Open), 3 months) was 98.5%, the “Total Imp./Deg. Products” value ([1]; 40° C./75% RH (Open), 3 months) was 0.0% and the LS ([1]; 40° C./75% RH (Open), 6 months) was 95.6%. For the same compound, the “Total Imp./Deg. Products” value ([1]; 40° C./75% RH (Open), 6 months) was 0.0%, the LS ([1]; Initial, 0 months) was 103.5% and the “Total Imp./Deg. Products” value ([1]; Initial, 0 months) was 0.0%. The total impurities/degradation products ([1]; granules, over 6 month storage at 25° C./60% RH and 40° C./75% RH, open and closed) was 0.0%, the “maximal HCV RNA change from baseline achievable (Emax model)” value (HCV RNA) was “approximately 77%” and the “Dissolved at 30 min” value ([2]; Batch A, 25° C./60% RH, 3 months) was 98%. The “Dissolved at 30 min” value ([2]; Batch A, 25° C./60% RH, 6 months) was 98%, the “Dissolved at 30 min” value ([2]; Batch A, 30° C./75% RH, 3 months) was 98% and the “Dissolved at 30 min” value ([2]; Batch A, 30° C./75% RH, 6 months) was 100%. For the same compound, the “Dissolved at 30 min” value ([2]; Batch A, 40° C./75% RH, 1 month) was 98%, the “Dissolved at 30 min” value ([2]; Batch A, 40° C./75% RH, 3 months) was 99% and the “Dissolved at 30 min” value ([2]; Batch A, 40° C./75% RH, 6 months) was 100%. For the same compound, the “Dissolved at 30 min” value ([2]; Batch A, Initial) was 98%, the “Dissolved at 30 min” value ([2]; Batch B, 25° C./60% RH, 3 months) was 99% and the “Dissolved at 30 min” value ([2]; Batch B, 25° C./60% RH, 6 months) was 99%. The “Dissolved at 30 min” value ([2]; Batch B, 30° C./75% RH, 3 months) was 99%, the “Dissolved at 30 min” value ([2]; Batch B, 30° C./75% RH, 6 months) was 99% and the “Dissolved at 30 min” value ([2]; Batch B, 40° C./75% RH, 1 month) was 100%. The “Dissolved at 30 min” value ([2]; Batch B, 40° C./75% RH, 3 months) was 100%, the “Dissolved at 30 min” value ([2]; Batch B, 40° C./75% RH, 6 months) was 98% and the “Dissolved at 30 min” value ([2]; Batch B, Initial) was 99%. The “amount dissolved at 30 min” value ([2]; Batch D) was 100%, the “Dissolved at 30 min” value ([2]; Batch D, 40° C./75% RH, 1 month) was 100% and the “Dissolved at 30 min” value ([2]; Batch D, Initial) was 100%. The “dissolution at 30 minutes” value ([2]; potency study Lot B, after 4 weeks open at 40° C./75% RH) was 100%, the “release at 30 minutes” value ([2]; tablet Lots A and B with different sofosbuvir particle size) was 101% and the “Dissolved at 30 min (%)” value ([2]; tablets Batch C, 1 g desiccant, 25° C./60% RH, 3 months) was 101%. For the same compound, the “Dissolved at 30 min (%)” value ([2]; tablets Batch C, 1 g desiccant, 25° C./60% RH, 6 months) was 99%, the “Dissolved at 30 min (%)” value ([2]; tablets Batch C, 1 g desiccant, 30° C./75% RH, 3 months) was 99% and the “Dissolved at 30 min (%)” value ([2]; tablets Batch C, 1 g desiccant, 30° C./75% RH, 6 months) was 99%. The “Dissolved at 30 min (%)” value ([2]; tablets Batch C, 1 g desiccant, 40° C./75% RH, 1 month) was 100%, the “Dissolved at 30 min (%)” value ([2]; tablets Batch C, 1 g desiccant, 40° C./75% RH, 3 months) was 100% and the “Dissolved at 30 min (%)” value ([2]; tablets Batch C, 1 g desiccant, 40° C./75% RH, 6 months) was 99%. For the same compound, the “Dissolved at 30 min (%)” value ([2]; tablets Batch C, 1 g desiccant, Initial, time 0) was 99%, the “Dissolved at 30 min (%)” value ([2]; tablets from VEL SSD 7.0% water, VOX SSD 3.2% water, Initial, time 0) was 100% and the “Dissolved at 30 min” value ([3]; Lot A (14 ct), 25° C./60% RH Closed, 1 month) was 98%. The “Dissolved at 30 min” value ([3]; Lot A (14 ct), 25° C./60% RH Closed, 3 months) was 103%, the “Dissolved at 30 min” value ([3]; Lot A (14 ct), 25° C./60% RH Closed, 6 months) was 103% and the “Dissolved at 30 min” value ([3]; Lot A (14 ct), 40° C./75% RH Closed, 1 month) was 100%. For the same compound, the “Dissolved at 30 min” value ([3]; Lot A (14 ct), 40° C./75% RH Closed, 3 months) was 100%, the “Dissolved at 30 min” value ([3]; Lot A (14 ct), 40° C./75% RH Closed, 6 months) was 100% and the “Dissolved at 30 min” value ([3]; Lot A (14 ct), 40° C./75% RH Open, 1 month) was 98%. For the same compound, the “Dissolved at 30 min” value ([3]; Lot A (14 ct), 40° C./75% RH Open, 3 months) was 101%, the “Dissolved at 30 min” value ([3]; Lot A (14 ct), 40° C./75% RH Open, 6 months) was 100% and the “Dissolved at 30 min” value ([3]; Lot A (14 ct), Initial) was 103%. The “Dissolved at 30 min” value ([3]; Lot B (28 ct), 25° C./60% RH Closed, 1 month) was 102%, the “Dissolved at 30 min” value ([3]; Lot B (28 ct), 25° C./60% RH Closed, 3 months) was 100% and the “Dissolved at 30 min” value ([3]; Lot B (28 ct), 25° C./60% RH Closed, 6 months) was 102%. The “Dissolved at 30 min” value ([3]; Lot B (28 ct), 40° C./75% RH Closed, 1 month) was 97%, the “Dissolved at 30 min” value ([3]; Lot B (28 ct), 40° C./75% RH Closed, 3 months) was 99% and the “Dissolved at 30 min” value ([3]; Lot B (28 ct), 40° C./75% RH Closed, 6 months) was 99%. The “Dissolved at 30 min” value ([3]; Lot B (28 ct), Initial) was 103%, the “BCS Class” value [4] was “BCS Class 3” and the “aqueous solubility, pH dependence” value [4] was “high and pH-independent”.
